From patent publication US20170007605A1, “Method of Optimizing the Treatment of Philadelphia-positive Leukemia with Abl Tyrosine Kinase Inhibitors” (Novartis AG, priority 2006, published 2017)
Several values for one entry are separate records, joined by “and”; a condition that tells them apart may be missing. Identical values can stand only once.

Assays:
[1] = in patients; cited from earlier work
[2] = Plasma trough levels (Cmin) of Imatinib and CGP74588, IRIS study (LC/MS/MS); type: in vivo
[3] = Trough plasma Imatinib concentrations at steady-state, Bordeaux study (HPLC-ESI-MS/MS)
CML-CP patients = test: CCR and MMR rates by steady-state Imatinib trough level quartile, IRIS study; type: in vivo, human
Method: Rates of CCR (defined as 0% Ph+ metaphase cells out of at least 20 examined) in the study population and major molecular response (MMR, defined as ≧3 log reduction in BCR-ABL/BCR ratio from a standardized baseline) in subjects who achieved CCR before were reported previously (O'Brien S G, Guilhot F, Larson R A, et al., see above).
CCR were evaluated up to 5 years.

CML patients = test: Cytogenetic (CCR) and molecular (MMR) response to Imatinib mesylate therapy and ROC curve analysis, Bordeaux study; type: in vivo, human; conditions: of 68 CML patients, after at least one year's treatment, 400 or 600 mg once daily
Method: The cytogenetic response to Imatinib mesylate therapy was assessed using a conventional cytogenetic analysis of bone marrow metaphases. Cytogenetic responders were defined as having CCR, i.e. 0 percent of Philadelphia-chromosome-positive metaphases among at least 25 cells in metaphase in the bone marrow aspirate (Colombat M, Fort M P, Chollet C, et al. Haematologica 2006; 91:162-8.). Real-time quantitative reverse-transcriptase polymerase chain reaction assay was used to assess BCR-ABL transcript levels and quantify the molecular response (Colombat M, Fort M P, Chollet C, et al. see above). Briefly, EDTA-anticoagulated peripheral blood was collected to perform RNA extraction followed by real-time quantitative reverse-transcriptase polymerase chain reaction. […] Quantification of BCR-ABL transcripts was performed according to recommendations recently proposed for harmoniza-tion of results (Hughes T P, Deininger M, Hochhaus A, et al. Blood 2006; 108:28-37.). […] A standardized baseline was calculated by measuring the ratio of BCR-ABL/ABL in 40 chronic-phase CML patients from blood collected before any treatment. […]
Any relationship between BCR-ABL transcript levels and the range time from date of Imatinib mesylate treatment initiation to date of molecular analysis was evaluated.
Results were expressed as adjusted odds ratio; 95 percent confidence interval; P value of Wald test.

[4] = tested on: newly diagnosed patients with CML in chronic phase (CML-CP); conditions: cited from earlier work
[5] = Day 29, Quartiles 2 and 3, N = 178
[6] = 400 mg daily, 50 patients, steady-state
[7] = 600 mg daily, 18 patients, steady-state
[8] = patients without MMR (34 patients)
[9] = five year follow-up, first-line imatinib

Cc1ccc(NC(=O)c2ccc(CN3CCNCC3)cc2)cc1Nc1nccc(-c2cccnc2)n1 [CGP74588, N-{5-[4-(piperazino-methyl)-benzoylamido]-2-methylphenyl}-4-(3-pyridyl)-2-pyrimidine-amine]
Metabolite level as share of the parent drug plasma level [1]: ~20%
Steady-state trough level, mean (±SD) ([2]; Day 29, 400 mg daily, overall N = 351): 241.9±105.5 ng/mL and 242 (±105.5) ng/mL
CGP74588/Imatinib trough concentration ratio, mean (±SD) ([2]; Day 29, Quartile 1, N = 87): 0.32 (±0.106)
Steady-state trough level, mean (±SD) ([2]; Day 29, Quartile 1, N = 87): 153 (±48.5) ng/mL
CGP74588/Imatinib trough concentration ratio, mean (±SD) ([2]; Day 29, Quartile 4, N = 86): 0.21 (±0.052)
Steady-state trough level, mean (±SD) ([2]; Day 29, Quartile 4, N = 86): 343 (±126.1) ng/mL
CGP74588/Imatinib trough concentration ratio, mean (±SD) [2, 5]: 0.27 (±0.068)
Steady-state trough level, mean (±SD) [2, 5]: 236 (±65.8) ng/mL
24-hour trough concentration after the first dose ([2]; first 400 mg dose, Day 2, mean±SD): 82.7 ± 47.4 ng/mL
Contribution of the metabolite to Imatinib exposure ([2]; in vivo): < 20%
Spearman correlation coefficient between parent drug and metabolite levels ([2]; in vivo): 0.76
Accumulation ratio to steady state ([2]; trough levels on days 2 and 29 in the same subject): 3.38±1.54

Cc1ccc(NC(=O)c2ccc(CN3CCN(C)CC3)cc2)cc1Nc1nccc(-c2cccnc2)n1 [Imatinib, 4-(4-methylpiperazin-1-ylmethyl)-N-[4-methyl-3-(4-(pyridin-3-yl)pyrimidin-2-ylamino)phenyl]-benzamide]
Trough plasma Imatinib concentration, mean value ([3]; 400 mg daily Imatinib mesylate, 50 patients, steady-state): 1058 ng per millilitre
Trough plasma Imatinib concentration, Q 25 (first quartile) [3, 6]: 722 ng per millilitre
Trough plasma Imatinib concentration, Q 75 (third quartile) [3, 6]: 1285 ng per millilitre
Trough plasma Imatinib concentration, maximum [3, 6]: 2947 ng per millilitre
Trough plasma Imatinib concentration, median [3, 6]: 997 ng per millilitre
Trough plasma Imatinib concentration, minimum [3, 6]: 181 ng per millilitre
Trough plasma Imatinib concentration, Q 25 (first quartile) [3, 7]: 902 ng per millilitre
Trough plasma Imatinib concentration, Q 75 (third quartile) [3, 7]: 1629 ng per millilitre
Trough plasma Imatinib concentration, maximum [3, 7]: 2922 ng per millilitre
Trough plasma Imatinib concentration, median [3, 7]: 1315 ng per millilitre
Trough plasma Imatinib concentration, minimum [3, 7]: 603 ng per millilitre
Mean (±SD) trough plasma Imatinib concentration ([3]; patients with CCR (56 patients)): 1123.3±616.6 ng per millilitre
Median trough plasma Imatinib concentration ([3]; patients with MMR (34 patients)): 1350.2 ng per millilitre
Mean (±SD) trough plasma Imatinib concentration ([3]; patients without CCR (12 patients)): 694.2±556.0 ng per millilitre
Mean (±SD) trough plasma Imatinib concentration [3, 8]: 869.3±427.5 ng per millilitre
Median trough plasma Imatinib concentration [3, 8]: 885.5 ng per millilitre
MMR (%) in pts with CCR (CML-CP patients; 1 year, Quartile 1): 43%
CCR rate (CML-CP patients; 1 year, Quartile 1 (n = 87)): 59%
MMR (%) in pts with CCR (CML-CP patients; 1 year, Quartile 4): 55%
CCR rate (CML-CP patients; 1 year, Quartile 4 (n = 86)): 73%
MMR (%) in pts with CCR (CML-CP patients; 1 year, Quartiles 2 and 3): 56%
CCR rate (CML-CP patients; 1 year, Quartiles 2 and 3 (n = 178)): 71%
CCR rate (CML-CP patients; 2 years, Quartile 1): 73%
MMR (%) in pts with CCR (CML-CP patients; 2 years, Quartile 1): 63%
CCR rate (CML-CP patients; 2 years, Quartile 4): 84%
MMR (%) in pts with CCR (CML-CP patients; 2 years, Quartile 4): 86%
CCR rate (CML-CP patients; 2 years, Quartiles 2 and 3): 80%
MMR (%) in pts with CCR (CML-CP patients; 2 years, Quartiles 2 and 3): 78%
CCR rate (CML-CP patients; 4 years, Quartile 1): 81%
MMR (%) in pts with CCR (CML-CP patients; 4 years, Quartile 1): 65%
CCR rate (CML-CP patients; 4 years, Quartile 4): 89%
MMR (%) in pts with CCR (CML-CP patients; 4 years, Quartile 4): 90%
CCR rate (CML-CP patients; 4 years, Quartiles 2 and 3): 87%
MMR (%) in pts with CCR (CML-CP patients; 4 years, Quartiles 2 and 3): 83%
Time to CCR (CML-CP patients; Quartile 1): 8.3 Month
Time to MMR in pts with CCR (CML-CP patients; Quartile 1): 16.7 months
Time to CCR (CML-CP patients; Quartile 4): 5.6 Month
Time to CCR (CML-CP patients; Quartiles 2 and 3): 5.7 Month
Estimated MMR rate, all patients (CML-CP patients; at 1 year, Imatinib levels <647 ng/mL): 25%
Estimated MMR rate, all patients (CML-CP patients; by 4 years, Q1): 53%
Estimated MMR rate, all patients (CML-CP patients; by 4 years, Q4): 80%
Estimated MMR rate, all patients (CML-CP patients; by 4 years, inter-quartile range (IQ)): 72%
Estimated MMR rate, all patients (CML-CP patients; within 1 year, patients with higher Imatinib levels): 40%
Number of patients who achieved a CCR (CML patients): 56
Steady-state trough level, mean (±SD) ([2]; Day 29, Quartile 1, N = 87): 490 (±119.7) ng/mL
Steady-state trough level, mean (±SD) ([2]; Day 29, Quartile 4, N = 86): 1661 (±602.0) ng/mL
Steady-state trough level, mean (±SD) [2, 5]: 889 (±148.2) ng/mL
Imatinib trough exposure (Cmin), mean ([2]; Day 29, patients who achieved CCR): 1009 ± 544 ng/mL and 1009 ng/mL
Imatinib trough exposure (Cmin), mean ([2]; Day 29, patients who did not achieve CCR): 812 ± 409 ng/mL and 812 ng/mL
Increase in trough level ([2]; age from 20 years to 70 years, linear relationship assumed): 295 ng/mL
Plasma trough level ([2]; females, steady state): 1078 ± 514.5 ng/mL
concentration at 24 h ([2]; human, plasma, first 400 mg dose, Day 2, mean±SD, read-out: 24-hour trough concentration after the first dose): 518 ± 370 ng/mL
Plasma trough level ([2]; males, steady state): 921 ± 530.8 ng/mL
Difference in plasma trough level, females vs males ([2]; steady state): 17.2%
Estimated decrease in trough level ([2]; weight increase from 40 kg to 120 kg, linear relationship assumed): approximately 280 ng/ml
Efficacy compared with IFN+Ara-C ([4]; 400 mg daily, newly diagnosed CML-CP): superior efficacy to IFN+Ara-C
Estimated cumulative rate of complete cytogenetic response (CCR) [4, 9]: 87%
Overall survival [4, 9]: 89%
